# Laboratory results published in publication PMC10135567, “New Indole-3-Propionic Acid and 5-Methoxy-Indole Carboxylic Acid Derived Hydrazone Hybrids as Multifunctional Neuroprotectors” (Antioxidants, 2023).
# Columns and labels:
# [1] = MTT cell viability assay (cytotoxicity), bEnd3; format: cell-based, mouse; details: mouse, bEnd3 brain endothelial cells, 1–500 µM
# Procedure: Mouse-brain endothelial cell line bEnd3 [36] (CRL-2299) was purchased from the American Type Culture Collection (ATCC, Manassas, VA, USA). The cells were cultured in DMEM (Dulbeco’s modified essential medium) (cat. no. 30-2002, ATCC, Manassas, VA, USA), supplemented with 10% heat-inactivated FBS (cat. no. F7524, Sigma-Aldrich Co. LLC, St. Louis, MO, USA), 1 mM L-glutamine (cat. no. G7513, Sigma-Aldrich Co. LLC, St. Louis, MO, USA) and 1× Antibiotic-Antimycotic solution (penicillin: streptomycin: amphotericin B (100 U/mL: 0.10 mg/mL: 0.25 µg/mL) (cat. no. A5955, Sigma-Aldrich Co. LLC, St. Louis, MO, USA) at 37 °C in a humidified atmosphere containing 5% CO2. The cells were passaged in 75 cm^2 flasks every 3–5 days via trypsinization (StableCell Trypsin solution, cat. no. T2610, Sigma-Aldrich Co. LLC, St. Louis, MO, USA).
# (§1) Cell viability was assessed via the mitochondrial reductase-dependent reaction of (3-(4,5-dimethylthiazol-2-yl)- 2,5-diphenyl tetrazolium bromide (MTT, cat. no. 475989, Calbiochem, Merck KGaA, Darmstadt, Germany). The SH-SY5Y and bEnd3 cell lines were seeded in 96-well plates at a density of 0.7 × 10^4 (bEnd3) or 2 × 10^4 (SH-SY5Y) cells/well and allowed to adhere for 24 h at 37 °C, 5% CO2. Then, the cells were incubated with the compounds (1–500 μM) for a preset time (24 h). For the solvent, the control cells were treated with DMSO corresponding to the highest concentration of DMSO in the samples (0.5% DMSO) in order to exclude its cytotoxic effect on the cells. For each concentration, a set of at least 6 wells were used. After incubation, the solution from each well was exchanged with fresh culture medium (100 µL/well), containing the MTT reagent (0.5 mg/mL) and incubated for 3 h at 37 °C in a humidified atmosphere and 5% CO2. The obtained formazan crystals were dissolved in 100 µL/well of 5% formic acid in propan-2-ol solution (or DMSO). The absorbance was measured at 570 nm via multiplate reader Tecan Infinite F200 PRO (Tecan Trading AG., Männedorf, Switzerland) or Synergy 2 (BioTek Instruments, Inc., Highland Park, Winooski, VT, USA).
# (§2) Both the SH-SY5Y and bEnd3 cells were treated with the test compounds in a concentration range from 1 to 500 µM for 24 h.
# [2] = MTT cell viability assay (cytotoxicity), SH-SY5Y; details: human, SH-SY5Y neuroblastoma cells
# Procedure: Neuroblastoma cell line SH-SY5Y (94030304) was acquired from the European Collection of Cell Cultures (ECACC, Salisbury, UK). Cells were cultured in a medium prepared with RPMI basic media supplemented with 10% heat-inactivated FBS (fetal bovine serum), 2 mM L-glutamine, 1% antibiotics (penicillin/streptomycin), and incubated at 37 °C in a humidified atmosphere containing 5% of CO2. The culture’s medium was replaced at a time interval of 2–3 days.
# as §1, §2
# [3] = system: isolated rat-brain synaptosomes; assay: 6-OHDA-induced neurotoxicity in isolated rat synaptosomes, synaptosomal viability; format: cell-based; details: 10 µM pre-incubation 30 min, then 150 µM 6-OHDA 1 h; for viability at 10 µM: Rattus norvegicus, read-out: synaptosomal viability (SV) preserved, as compared to 6-OHDA
# Procedure: This neurotoxicity model was based on the metabolism and auto-oxidation of 6-hydroxy dopamine responsible for the reactive oxygen species and quinones generation, ultimately leading to neurotoxicity and neurodegeneration. The experiment was performed by pre-incubation of the synaptosomes with 10 µM of the compounds for 30 min, followed by the addition of 150 µM 6-hydroxy dopamine for induction of neurotoxicity. After 1 h, they were centrifuged twice for 1 min at 15,000 × g. After the second wash, the precipitates were resolved with buffer B and glucose.
# bEnd3 monolayer = assay: Permeability assay, static BBB model of bEnd3 monolayer (streptavidin-HRP passage); format: cell-based, mouse; details: 90 min
# Procedure: To evaluate the compounds’ effect on a BBB model, bEnd3 endothelial cells were seeded on polycarbon (PC) cell-culture inserts with 0.4 µm pore size (cat. no. 1CH3.1, BRAND GMBH + CO KG, Wertheim, Germany) and a density of 5.6 × 10^3 cells/insert. The inserts were placed in a 24-well plate containing 1 mL of cell-culture medium. […] On the second day of incubation, the cell-culture medium was refreshed. To ensure 100% confluence, the inserts were evaluated for medium leakage before the experiment. […] Following the incubation, the inserts were placed in a new 24-well plate containing 1 mL Phenol Red free–DMEM (cat. no. D1145, Sigma-Aldrich Co. LLC, St. Louis, MO, USA) without serum. In the upper chamber, a solution of streptavidin, conjugated with horse-radish peroxidase (HRP, cat. no. SA00001-0, Proteintech, Rosemont, Illinois, USA) (1:1000) in serum-free phenol red medium was added. The cells were further incubated for 5 min at 37 °C and 5% CO2, after which the inserts were removed. The remaining medium in the 24-well plate was collected and vortexed briefly, and 3 × 50 µL aliquots were transferred into a 96-well plate. A total of 50 µL TMB Signal+ substrate solution (BUF054A, Bio-Rad, Hercules, CA, USA) was added to each well and incubated for 5 min at 37 °C. The HRP converted the TMB to a blue-colored product. To stop the reaction, 50 µL of 0.2 N H2SO4 was added that caused the blue color to turn yellow. […] Each condition was tested at least twice.
# To further explore the neuroprotective effect of the compounds, we tested their ability to influence the BBB and its permeability, utilizing a static BBB model with brain microvascular endothelial cell line bEnd3 [36], as it would be essential for the compounds to pass the BBB and protect the neuronal cells. In addition to their endothelial origin, the bEnd3 cells were strongly connected by specific proteins (ZO-1, claudin-5) forming tight junctions (TJs). This was crucial for preventing unregulated […] transport and sustaining the apical–basal polarity of the monolayer. Here, we determined any changes in the permeability of the BBB by imitating an endothelial barrier via a static BBB model of bEnd3 cells (Figure 11a,c,e). This allowed us to determine the possibility of drug passage. It should be noted, that even though drug passage was desirable, any irreversible modifications of the cell monolayer and the TJs were considered threatening. Therefore, in parallel to the permeability tests, the bEnd3 cells were stained for TJ-formation and ZO-1 distribution (Figure 11b,d,f).
compound,measurement,setting,value
"COc1cc(C=NNC(=O)CCc2c[nH]c3ccccc23)ccc1O [Compound 3d, N′-(4-Hydroxy-3-methoxybenzylidene)-3-(1H-indol-3-yl)propanehydrazide]",IC50 at 24 h,[1],367 µM
same,IC50 at 24 h,[2],156 µM
same,viability at 10 µM,[3],33%
same,melting point,,157 to 158 °C
same,change of permeability of bEnd3 monolayer vs. control (in words),bEnd3 monolayer; 50 µM,increased the permeability
"COc1cc(C=NNC(=O)CCc2c[nH]c3ccccc23)cc(OC)c1O [Compound 3f, N′-(4-Hydroxy-3,5-dimethoxybenzylidene)-3-(1H-indol-3-yl)propanehydrazide]",IC50 at 24 h,[1],> 500 µM
same,IC50 at 24 h,[2],> 500 µM
same,viability at 10 µM,[3],44%
same,melting point,,134 to 135 °C
same,increase in the permeability of bEnd3 monolayer,bEnd3 monolayer; 10 µM,0.5 times
same,change of permeability of bEnd3 monolayer vs. control (in words),bEnd3 monolayer; 50 µM,increased the permeability
"COc1ccc2[nH]c(C(=O)NN=Cc3cccc(O)c3O)cc2c1 [Compound 5a, N′-(2,3-Dihydroxybenzylidene)-5-methoxy-1H-indole-2-carbohydrazide]",IC50 at 24 h,[1],197 µM
same,IC50 at 24 h,[2],79.3 µM
same,viability at 10 µM,[3],56%
same,melting point,,262 to 263 °C
same,change of permeability of bEnd3 monolayer vs. control (in words),bEnd3 monolayer; 10 µM,passage through the BBB model was induced
same,change of permeability of bEnd3 monolayer vs. control (in words),bEnd3 monolayer; 50 µM,reduced the permeability
"COc1ccc2[nH]c(C(=O)NN=Cc3ccc(O)c(O)c3)cc2c1 [Compound 5b, N′-(3,4-Dihydroxybenzylidene)-5-methoxy-1H-indole-2-carbohydrazide]",IC50 at 24 h,[1],158 µM
same,IC50 at 24 h,[2],111 µM
same,viability at 10 µM,[3],44%
same,melting point,,252 to 253 °C
same,change of permeability of bEnd3 monolayer vs. control (in words),bEnd3 monolayer; 10 µM,passage through the BBB model was induced
same,change of permeability of bEnd3 monolayer vs. control (in words),bEnd3 monolayer; 50 µM,reduced the permeability
"COc1ccc2[nH]c(C(=O)NN=Cc3ccc(O)cc3O)cc2c1 [Compound 5c, N′-(2,4-Dihydroxybenzylidene)-5-methoxy-1H-indole-2-carbohydrazide]",IC50 at 24 h,[1],> 500 µM
same,IC50 at 24 h,[2],73.9 µM
same,viability at 10 µM,[3],44%
same,change of permeability of bEnd3 monolayer vs. control (in words),bEnd3 monolayer; 50 µM,reduced the permeability
"COc1ccc2[nH]c(C(=O)NN=Cc3ccc(O)c(OC)c3)cc2c1 [Compound 5d, N′-(4-Hydroxy-3-methoxybenzylidene)-5-methoxy-1H-indole-2-carbohydrazide]",IC50 at 24 h,[1],353 µM
same,IC50 at 24 h,[2],98.2 µM
same,viability at 10 µM,[3],44%
same,melting point,,261 °C
same,change of permeability of bEnd3 monolayer vs. control (in words),bEnd3 monolayer; 10 µM,decreased it
"COc1ccc(C=NNC(=O)c2cc3cc(OC)ccc3[nH]2)c(O)c1 [Compound 5e, N′-(2-Hydroxy-4-methoxybenzylidene)-5-methoxy-1H-indole-2-carbohydrazide]",IC50 at 24 h,[1],12.1 µM
same,IC50 at 24 h,[2],200 µM
same,viability at 10 µM,[3],56%
"COc1ccc2[nH]c(C(=O)NN=Cc3cc(OC)c(O)c(OC)c3)cc2c1 [Compound 5f, N′-(4-Hydroxy-3,5-dimethoxybenzylidene)-5-methoxy-1H-indole-2-carbohydrazide]",IC50 at 24 h,[1],184 µM
same,IC50 at 24 h,[2],287 µM
same,viability at 10 µM,[3],56%
same,melting point,,239 to 240 °C
same,change of permeability of bEnd3 monolayer vs. control (in words),bEnd3 monolayer; 10 µM,decreased it
COc1ccc2[nH]cc(CCNC(C)=O)c2c1 [Melatonin],IC50 at 24 h,[1],> 500 µM
same,IC50 at 24 h,[2],> 500 µM
same,viability at 10 µM,[3],78%
same,influence on the permeability of the monolayer (in words),bEnd3 monolayer; 10 or 50 µM,did not influence the permeability
N′-(4-Hydroxy-2-methoxybenzylidene)-3-(1H-indol-3-yl)propanehydrazide [Compound 3e],"synaptosomal viability (SV) preserved, as compared to 6-OHDA",[3],33%
same,change of permeability of bEnd3 monolayer vs. control (in words),bEnd3 monolayer; 50 µM,increased the permeability
